Reference: ChEMBL document CHEMBL2074171, “Studies on intestinal absorption of sulpiride (1): carrier-mediated uptake of sulpiride in the human intestinal cell line Caco-2” (Biol Pharm Bull, 2002)
Peptide text beside a SMILES is read from it.

Legend:
[1] = molecular target: T1, Solute carrier family 15 member 1 (Homo sapiens) (UniProt P46059); assay: TP_TRANSPORTER: trans-stimulation of Sulpiride uptake (Surpiride: 100 uM, Gly-Sar: 1000 uM) in Caco-2 cells; assay type: functional, cell-based
T1 sequence (whole entry): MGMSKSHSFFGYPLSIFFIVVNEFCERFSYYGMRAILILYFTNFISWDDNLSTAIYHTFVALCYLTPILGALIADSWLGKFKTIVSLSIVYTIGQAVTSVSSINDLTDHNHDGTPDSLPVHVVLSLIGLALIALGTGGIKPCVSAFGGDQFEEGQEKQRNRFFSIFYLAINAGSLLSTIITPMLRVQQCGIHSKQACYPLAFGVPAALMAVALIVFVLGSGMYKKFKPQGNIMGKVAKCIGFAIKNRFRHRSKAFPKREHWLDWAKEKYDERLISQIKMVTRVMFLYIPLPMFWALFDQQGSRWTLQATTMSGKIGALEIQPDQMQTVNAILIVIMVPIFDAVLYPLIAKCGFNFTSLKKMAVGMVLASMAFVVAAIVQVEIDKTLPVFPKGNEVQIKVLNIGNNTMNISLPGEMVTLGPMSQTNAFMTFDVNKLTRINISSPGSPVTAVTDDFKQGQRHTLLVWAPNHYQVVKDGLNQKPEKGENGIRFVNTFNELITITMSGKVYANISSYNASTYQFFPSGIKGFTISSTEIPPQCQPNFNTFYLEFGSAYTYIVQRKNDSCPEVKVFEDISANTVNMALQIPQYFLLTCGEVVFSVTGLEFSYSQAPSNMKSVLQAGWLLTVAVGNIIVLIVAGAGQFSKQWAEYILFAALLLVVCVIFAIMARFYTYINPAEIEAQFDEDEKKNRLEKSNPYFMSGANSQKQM

[2] = molecular target: T1, Solute carrier family 15 member 1 (Homo sapiens); assay: TP_TRANSPORTER: inhibition of Sulpiride uptake (Surpiride: 100 uM, Gly-Sar: 1000 uM) in Caco-2 cells; assay type: functional, cell-based; parameters: scale not given: the % may be the effect or the level left

Activity [1]: 135% | Activity [2]: 65%
SMILES: CN(CC(=O)O)C(=O)CN (HELM PEPTIDE1{G.[Sar]}$$$$V2.0)
